Legend:
[1] = target: T1, cathepsin B (Sigma, C-6286) (Bos taurus, UniProt P07688); assay: Inhibitory activity against cathepsin B; format: biochemical; conditions: Inhibitory activity against cathepsin B (Table-5)
T1 construct: purchased Sigma C-6286
Method: Inhibitory activity against cathepsin B (Sigma, C-6286) was determined according to a method described in a literature (Biochemical Journal, Vol. 201, p. 189, 1982).

m-Calpain = target: T2, m-Calpain (Rattus norvegicus, UniProt Q07009); assay: Inhibitory activity against calpain (m-Calpain purified from brains of rats); format: biochemical
T2 construct: m-Calpain was purified from brains of rats; from tissue; host or cells: rat brain
T2 sequence (Q07009 20-700 limits assumed): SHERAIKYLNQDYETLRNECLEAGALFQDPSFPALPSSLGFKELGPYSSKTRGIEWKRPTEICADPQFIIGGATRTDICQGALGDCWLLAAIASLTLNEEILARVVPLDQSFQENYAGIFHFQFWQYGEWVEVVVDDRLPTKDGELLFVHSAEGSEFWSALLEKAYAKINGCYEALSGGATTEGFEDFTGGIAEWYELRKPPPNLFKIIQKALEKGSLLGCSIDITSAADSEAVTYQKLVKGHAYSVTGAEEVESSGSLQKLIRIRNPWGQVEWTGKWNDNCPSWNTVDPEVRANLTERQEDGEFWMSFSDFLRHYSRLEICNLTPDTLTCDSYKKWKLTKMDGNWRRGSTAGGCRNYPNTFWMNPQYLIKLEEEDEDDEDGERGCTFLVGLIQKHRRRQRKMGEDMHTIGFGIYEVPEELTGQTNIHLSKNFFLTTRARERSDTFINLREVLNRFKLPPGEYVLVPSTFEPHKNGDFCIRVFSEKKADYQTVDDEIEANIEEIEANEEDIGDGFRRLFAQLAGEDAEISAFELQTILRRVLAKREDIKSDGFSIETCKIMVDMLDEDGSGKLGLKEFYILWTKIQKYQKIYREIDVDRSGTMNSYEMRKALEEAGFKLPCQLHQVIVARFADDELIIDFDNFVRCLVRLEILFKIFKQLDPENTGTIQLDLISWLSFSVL
T2 sequence (Q64537 1-270 partner): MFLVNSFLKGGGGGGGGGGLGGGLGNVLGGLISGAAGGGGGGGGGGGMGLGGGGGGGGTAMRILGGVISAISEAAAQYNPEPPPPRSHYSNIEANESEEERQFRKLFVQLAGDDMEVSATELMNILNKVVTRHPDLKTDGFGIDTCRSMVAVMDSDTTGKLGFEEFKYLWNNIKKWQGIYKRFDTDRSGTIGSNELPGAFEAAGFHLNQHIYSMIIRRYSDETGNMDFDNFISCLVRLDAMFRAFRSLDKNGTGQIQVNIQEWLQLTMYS
Method: m-Calpain was purified from brains of rats according to a method described in a literature (Journal of Biological Chemistry, Vol. 259, p. 3210, 1984), and the inhibitory activity was determined in a manner according to a published method (Journal of Biological Chemistry, Vol. 259, p. 12489, 1984).

[2] = Inhibitory activity against calpain (Table-6)
[3] = Inhibitory activity against calpain (continuation of Table-6)

SMILES | IC50 [1] | IC50 (m-Calpain; [2]) | IC50 (m-Calpain; [3])
CC(C)C[C@H](NS(=O)(=O)c1ccccc1)C(=O)N[C@H]1CCOC1O (stereo partly drawn) [Example 1, (3S)-3-((S)-4-methyl-2-phenylsulfonylaminovalerylamino)-2-tetrahydrofuranol] | 420 nM | 620 nM | –
CC(C)C[C@H](NC(=O)OC(C)(C)C)C(=O)N[C@H]1CCOC1O (stereo partly drawn) [Example 10, (3S)-3-((S)-2-tert-butoxycarbonylamino-4-methylvalerylamino)-2-tetrahydrofuranol] | 370 nM | 960 nM | –
CC(C)COC(=O)N[C@@H](CC(C)C)C(=O)N[C@H]1CCOC1O (stereo partly drawn) [Example 11, (3S)-3-((S)-2-isobutoxycarbonylamino-4-methylvalerylamino)-2-tetrahydrofuranol] | 2150 nM | 1100 nM | –
CC(C)C[C@H](NC(=O)c1ccccc1F)C(=O)N[C@H]1CCOC1O (stereo partly drawn) [Example 40, (3S)-3-{(S)-2-(2-fluorobenzoylamino)-4-metylvalerylamino}-2-tetrahydrofuranol] | 1000 nM | – | –
Cc1ccc(C(=O)N[C@@H](CC(C)C)C(=O)N[C@H]2CCOC2O)cc1 (stereo partly drawn) [Example 46, (3S)-3-{(S)-4-methyl-2-(4-methylbenzoylamino)valerylamino}-2-tetrahydorofuranol] | 270 nM | – | –
Cc1cc(C)c(C(=O)N[C@@H](CC(C)C)C(=O)N[C@H]2CCOC2O)c(C)c1 (stereo partly drawn) [Example 49, (3S)-3-{(S)-4-methyl-2-(2,4,6-trimethylbenzoylamino)valerylamino}-2-tetrahydrofuranol] | – | 680 nM | –
COc1ccc(C(=O)N[C@@H](CC(C)C)C(=O)N[C@H]2CCOC2O)c(OC)c1 (stereo partly drawn) [Example 54, (3S)-3-{(S)-2-(2,4-dimethoxybenzoylamino)-4-methylvalerylamino}-2-tetrahydrofuranol] | – | 700 nM | –
CC(C)C[C@H](NC(=O)C1CCc2ccccc2O1)C(=O)N[C@H]1CCOC1O (some centres unmarked) [Example 63] | – | – | 350 nM
CC(C)C[C@H](NS(=O)(=O)c1ccc(Cl)cc1)C(=O)N[C@H]1CCOC1O (stereo partly drawn) [Example 68, (3S)-3-{(S)-2-(4-chlorophenylsulfonylamino)-4-methylvalerylamino}-2-tetrahydrofuranol] | – | – | 560 nM
Cc1cc(C)c(S(=O)(=O)N[C@@H](CC(C)C)C(=O)N[C@H]2CCOC2O)c(C)c1 (stereo partly drawn) [Example 71, (3S)-3-{(S)-4-methyl-2-(2,4,6-trimethylphenylsulfonylamino)valerylamino}-2-tetrahydrofuranol] | – | – | 450 nM
CC(C)C[C@H](NS(=O)(=O)c1ccc(C(C)(C)C)cc1)C(=O)N[C@H]1CCOC1O (stereo partly drawn) [Example 72, (3S)-3-{(S)-2-(4-tert-butylphenylsulfonylamino)-4-methylvalerylamino}-2-tetrahydrofuranol] | – | – | 390 nM
COc1ccc(S(=O)(=O)N[C@@H](CC(C)C)C(=O)N[C@H]2CCOC2O)cc1 (stereo partly drawn) [Example 73, (3S)-3-{(S)-2-(4-methoxyphenylsulfonylamino)-4-methylvalerylamino}-2-tetrahydrofuranol] | – | – | 740 nM
CC(C)C[C@H](NS(=O)(=O)c1cccc([N+](=O)[O-])c1)C(=O)N[C@H]1CCOC1O (stereo partly drawn) [Example 74, (3S)-3-{(S)-4-methyl-2-(3-nitrophenylsulfonylamino)valerylamino}-2-tetrahydrofuranol] | – | – | 950 nM
CC(C)C[C@H](NS(=O)(=O)c1ccccc1)C(=O)N[C@H]1C(C)COC1O (stereo partly drawn) [Example 80, (3S)-4-methyl-3-((S)-4-methyl-2-phenylsulfonylaminovalerylamino)-2-tetrahydrofuranol] | – | – | 2800 nM

Now from value to compound:

IC50 [1] | IC50 (m-Calpain; [2]) | IC50 (m-Calpain; [3]) | SMILES
700 nM | 900 nM | – | CCC[C@H](NC(=O)OCc1ccccc1)C(=O)N[C@H]1CCOC1O (stereo partly drawn) [Example 4, (3S)-3-((S)-2-benzyloxycarbonylaminovalerylamino)-2-tetrahydrofuranol]
980 nM | 2300 nM | – | CC(C)[C@H](NC(=O)OCc1ccccc1)C(=O)NC1CCOC1O (stereo partly drawn) [Example 5, 3-((S)-2-benzyloxycarbonylamino-3-methylbutyrylamino)-2-tetrahydrofuranol]
1350 nM | 2300 nM | – | CCCC[C@H](NC(=O)OCc1ccccc1)C(=O)N[C@H]1CCOC1O (stereo partly drawn) [Example 6, (3S)-3-((S)-2-benzyloxycarbonylaminohexanoylamino)-2-tetrahydrofuranol]
900 nM | 2400 nM | – | CCC(C)[C@H](NC(=O)OCc1ccccc1)C(=O)N[C@H]1CCOC1O (stereo partly drawn) [Example 7, (3S)-3-((2S)-2-benzyloxycarbonylamino-3-methylvalerylamino)-2-tetrahydrofuranol]
– | 1550 nM | – | COC(=O)N[C@@H](CC(C)C)C(=O)NC1CCOC1O (stereo partly drawn) [Example 9, 3-((S)-2-methoxycarbonylamino-4-methylvalerylamino)-2-tetrahydrofuranol]
1200 nM | 650 nM | – | CC(C)C[C@H](NC(=O)OCC1CCCCC1)C(=O)N[C@H]1CCOC1O (stereo partly drawn) [Example 12, (3S)-3-((S)-2-cyclohexylmethoxycarbonylamino-4-methylvalerylamino)-2-tetrahydrofuranol]
380 nM | 660 nM | – | CC(C)C[C@H](NC(=O)OCc1ccccc1)C(=O)N[C@H]1CCOC1O (stereo partly drawn) [Example 13, (3S)-3-((S)-2-benzyloxycarbonylamino-4-methylvalerylamino)-2-tetrahydrofuranol]
700 nM | 680 nM | – | CC(C)C[C@H](NC(=O)OCc1ccc(F)cc1)C(=O)N[C@H]1CCOC1O (stereo partly drawn) [Example 15, (3S)-3-{(S)-2-(4-fluorobenzyloxycarbonylamino)-4-methylvalerylamino}-2-tetrahydrofuranol]
1000 nM | 340 nM | – | CC(C)C[C@H](NC(=O)OCc1ccccc1Cl)C(=O)N[C@H]1CCOC1O (stereo partly drawn) [Example 16, (3S)-3-{(S)-2-(2-chlorobenzyloxycarbonylamino)-4-methylvalerylamino}-2-tetrahydrofuranol]
– | 410 nM | – | CC(C)C[C@H](NC(=O)OCC1c2ccccc2-c2ccccc21)C(=O)N[C@H]1CCOC1O (stereo partly drawn) [Example 22, (3S)-3-{(S)-2-(9-fluorenylmethoxycarbonylamino)-4-methylvalerylamino}-2-tetrahydrofuranol]
– | 1100 nM | – | CC(C)C[C@H](NC(=O)OCC1CCCO1)C(=O)N[C@H]1CCOC1O (stereo partly drawn) [Example 23, (3S)-3-((S)-4-methyl-2-tetrahydrofurfuryloxycarbonylaminovalerylamino)-2-tetrahydrofuranol]
– | 1400 nM | – | CC(C)C[C@H](NC(=O)OCc1cccc[n+]1[O-])C(=O)NC1CCOC1O (stereo partly drawn) [Example 26, 3-{(S)-4-methyl-2-(2-pyridylmethoxycarbonylamino)valerylamino)-2-tetrahydrofuranol N-oxide]
– | 2300 nM | – | Cc1cccc(C)c1C(=O)N[C@@H](CC(C)C)C(=O)N[C@H]1CCOC1O (stereo partly drawn) [Example 47, (3S)-3-{(S)-2-(2,6-dimethylbenzoylamino)-4-methylvalerylamino)-2-tetrahydrofuranol]
– | 340 nM | – | COc1ccccc1C(=O)N[C@@H](CC(C)C)C(=O)N[C@H]1CCOC1O (stereo partly drawn) [Example 52, (3S)-3-{(S)-2-(2-methoxybenzoylamino)-4-methylvalerylamino)-2-tetrahydrofuranol]
– | – | 600 nM | CC(C)C[C@H](NS(=O)(=O)c1ccc(F)cc1)C(=O)N[C@H]1CCOC1O (stereo partly drawn) [Example 66, (3S)-3-{(S)-2-(4-fluorophenylsulfonylamino)-4-methylvalerylamino}-2-tetrahydrofuranol]
– | – | 620 nM | CC(C)C[C@H](NS(=O)(=O)c1ccc(Br)cc1)C(=O)N[C@H]1CCOC1O (stereo partly drawn) [Example 69, (3S)-3-{(S)-2-(4-bromophenylsulfonylamino)-4-methylvalerylamino}-2-tetrahydrofuranol]
– | – | 500 nM | Cc1ccc(S(=O)(=O)N[C@@H](CC(C)C)C(=O)N[C@H]2CCOC2O)cc1 (stereo partly drawn) [Example 70, (3S)-3-{(S)-4-methyl-2-(4-methylphenylsulfonylamino)valerylamino}-2-tetrahydrofuranol]
300 nM | – | – | O=C(N[C@@H](Cc1ccccc1)C(=O)N[C@H]1CCOC1O)OCc1ccccc1 (stereo partly drawn) [Example 78, (3S)-3-((S)-2-benzyloxycarbonylamino-3-phenylpropionylamino)-2-tetrahydrofuranol]
– | – | 1550 nM | CC(C)C[C@H](NC(=O)OCc1ccccc1)C(=O)N[C@H]1CCCOC1O (some centres unmarked) [Example 81]

Reference: patent EP0810221A1 (MITSUBISHI CHEMICAL CORPORATION, priority 1995, dated 1996)
